Laboratory results: paper PMC11173382, “In Vitro Investigations into the Potential Drug Interactions of Pseudoginsenoside DQ Mediated by Cytochrome P450 and Human Drug Transporters” (Molecules, 2024)

Molecular target: T1, hBCRP (Homo sapiens, UniProt Q9UNQ0)
T1 construct: purchased GenoMembrane DNAIG03; host or cells: Sf9 insect cell membrane vesicles
T1 sequence (Q9UNQ0 1-655): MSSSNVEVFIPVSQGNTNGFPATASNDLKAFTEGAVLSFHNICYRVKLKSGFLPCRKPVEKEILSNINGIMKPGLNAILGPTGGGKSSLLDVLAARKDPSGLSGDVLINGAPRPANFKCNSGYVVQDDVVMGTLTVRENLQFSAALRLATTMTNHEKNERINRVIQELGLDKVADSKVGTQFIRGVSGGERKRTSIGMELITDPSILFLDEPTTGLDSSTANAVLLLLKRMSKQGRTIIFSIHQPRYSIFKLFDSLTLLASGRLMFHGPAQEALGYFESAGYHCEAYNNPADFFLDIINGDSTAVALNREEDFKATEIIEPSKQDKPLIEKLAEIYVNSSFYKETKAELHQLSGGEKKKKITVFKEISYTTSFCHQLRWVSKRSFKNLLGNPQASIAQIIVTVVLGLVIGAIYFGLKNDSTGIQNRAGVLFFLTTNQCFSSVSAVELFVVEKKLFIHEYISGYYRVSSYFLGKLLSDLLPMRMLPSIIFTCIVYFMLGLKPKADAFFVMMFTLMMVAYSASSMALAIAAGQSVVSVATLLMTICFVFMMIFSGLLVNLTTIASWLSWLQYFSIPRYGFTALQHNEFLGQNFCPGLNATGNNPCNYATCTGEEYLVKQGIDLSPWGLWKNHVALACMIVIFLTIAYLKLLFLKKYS
Assay: Vesicular transport assay with sf9-BCRP vesicles (3H-ES)
Assay type: in vitro ADME
Conditions: for Transport activity of BCRP (main text: percentage inhibition): negative control = 100%
Source text: Drug transporters mediate the cellular uptake and efflux of their substrates. Therefore, cell lines overexpressing a drug transporter can be utilized to investigate inhibitors of the transporter by assessing changes in substrate uptake. For each drug transporter, we selected a well-characterized inhibitor as the positive control. Radiolabeled substrates were used to indicate the decrease in transport efficiency when the drug transporters were inhibited by PDQ or the control inhibitors.
The concentrations of the control drugs and the substrates were stated in the assay details. Working solutions of the control inhibitors, the radiolabeled substrates, and each dose of PDQ were prepared at 200 times (200×) more concentrated solutions with DMSO for further dilution.
Transporter-overexpressed cell lines. Human organic anion transporter-overexpressed cell lines MDCKII-OAT1 and S2-OAT3, human organic anion transport polypeptide-overexpressed cell lines HEK293A-OATP1B1 and HEK293A-OATP1B3, human organic cation transporter 2-overexpressed cell line S2-OCT2, and human multi-drug resistance protein MDR1 (or P-gp)-overexpressed cell line MDCKII-MDR1 were gifts from Japan Fuji Biomedical Co., Ltd. (Fuji, Shizuoka Prefecture, Japan). Breast cancer resistance protein-overexpressed vesicles (sf9-BCRP vesicle) were purchased from GenoMembrane Co., Ltd. (Yokohama, Kanagawa, Japan).
Vesicular transport assay with the sf9-BCRP model. Vesicular transport assay was conducted to measure the interaction between PDQ and the efflux transporter BCRP, using sf9-BCRP vesicles (Cat. No, DNAIG03, GenoMembrane, Yokohama, Kanagawa, Japan). The modulation of ^3H-ES transport reflects the level of the drug-transporter interaction.
The MgATP working solution was prepared by diluting the 200 mM stock solution with the transport buffer, while the reduced glutathione solution was made by dissolving glutathione (0.615 g) in 8 mL deionized water and adjusting the pH to 6.8 with 2M NaOH. The drug solution in the reaction mix was replaced with […] of transport buffer as the negative control mix. These reaction mixes were pre-incubated at 37 °C before use. All reagents were thawed on ice, and deionized water was used for the preparation.
The membrane suspension was gently mixed with ice-cold transport buffer and aliquoted to 1.5 mL centrifuge tubes on ice. Each tube contained […] of vesicles ([…] BCRP) and […] of transport buffer. The vesicle-containing tubes were pre-incubated at 37 °C for 5 min. Then, the reaction mixes were added to the tubes to initiate the assay. To terminate the reaction after 5 min, […] of washing buffer (40 mM MOPS-Tris and 70 mM KCl) was added to each tube on ice. The samples were then transferred to the filter and filtered. The filters were washed with 5 mL of cold washing buffer three times. Subsequently, the filters were placed at the bottom of the counting vials, and the scintillation cocktail was added. The filter and the cocktail were vigorously vortexed to mix. The remaining radiation in the samples was then measured with the scintillation counter. Each sample was replicated three times (N = 3).
In = [100 × (U − U0)/(Uc − U0)]%(3)
The results were expressed as mean ± standard deviation (SD) and analyzed with GraphPad Prism 8.0 software (CA, USA). The IC50 of PDQ was curve-fitted with the FORECAST function. Statistical significance was calculated using a two-tailed test, and a p value < 0.05 was considered as significant.

CC(C)(O)[C@@H]1CC[C@@](C)([C@H]2CC[C@]3(C)[C@@H]2[C@H](O)C[C@@H]2[C@@]4(C)CC[C@H](O)C(C)(C)[C@@H]4CC[C@]23C)O1 [PDQ, (20S,24S)-dammar-20,24-epoxy-3β, 12β, 25-triol]
DPM (3H-ES transport by BCRP) (inhibitor 0.1 μM): 5303.7±176.6 DPM
Transport activity of BCRP (main text: percentage inhibition) (inhibitor 0.1 μM): 96.1±3.2%
DPM (3H-ES transport by BCRP) (inhibitor 0.3 μM): 2995.3±288.8 DPM
Transport activity of BCRP (main text: percentage inhibition) (inhibitor 0.3 μM): 54.3±5.2%
DPM (3H-ES transport by BCRP) (inhibitor 1 μM): 2788.3±479.5 DPM
Transport activity of BCRP (main text: percentage inhibition) (inhibitor 1 μM): 50.5±8.7%
DPM (3H-ES transport by BCRP) (inhibitor 3 μM): 2352.7±355.1 DPM
Transport activity of BCRP (main text: percentage inhibition) (inhibitor 3 μM): 42.7±6.4%
DPM (3H-ES transport by BCRP) (inhibitor 10 μM): 1997.3±185.1 DPM
Transport activity of BCRP (main text: percentage inhibition) (inhibitor 10 μM): 36.2±3.4%
DPM (3H-ES transport by BCRP) (inhibitor 30 μM): 1911.0±179.5 DPM
IC50 (sf9-BCRP vesicles, 3H-ES 1 µM, 5 min): 1.08 µM
